Consider four compounds from patent US4859673A, “Amide derivatives and antiallergic agents containing the same” (Terumo Kabushiki Kaisha, priority 1986, dated 1989).

The subject of this assay is passive cutaneous anaphylaxis reaction (PCA reaction). The assay can be described thus: PCA reaction-inhibitory effects in rats (passive cutaneous anaphylaxis, oral administration). In kind it is in vivo, Female Sprague-Dawley strain rats. The following applies: 1 hour before challenge. Here is the method: DNP-ascaris (1 mg) prepared by combining a swine ascaris extract with 2,4-dinitrophenyl sulfate was mixe with 20 mg of aluminum hydroxide gel. The mixture was administered to rats subcutaneously on the back, and at the same time the animals were intraperitoneally given 2×10^10 dead Bordetella pertussis respectively. The same procedures were repeated after 14 days, and blood sample was obtained after 21 days to produce antisera.
Female Sprague-Dawley strain rats (8 weeks old) were sensitized by subcutaneously administering 0.1 ml of 1:256 diluted antisera (titer=1024)respectively on the grained back. After 48 hours, groups of four rats were orally given the amide derivatives produced in the examples above at various concentrations. After one hour, the rats were challenged by intravenously administering a 0.5% physiological saline solution of Evans Blue containing 1 mg of the NDP-ascaris from the tail. After 30 minutes, the animal was sacrificed by bleeding and the portion of the skin with the dye exuded was cut off. The cut skin was treated with 1N-KOH solution, and the dye was extracted by adding 9 ml of 0.6N-phosphoric acid-acetone (5:13) mixture. The supernatant from centrifugal separation was measured for absorbancy at 620 nm to determine amount of the dye. Percent inhibition at each of the concentrations of the amide derivatives was calculated in comparison with amount of the dye for control group. Results are shown in Table-I. Percent inhibition of tranilast, an antiallergic agent commercially available from Kissei Pharmaceutical Co., Ltd. under the trade name of Rizaben against PCA reaction was also shown in Table-I. As shown in Table-I, the amide derivatives of the invention produced high PCA reaction-inhibitory effects.

`COc1cc(/C=C/C=C/C(=O)NCCN2CCC(OC(c3ccccc3)c3ccccc3)CC2)ccc1OC1CCCO1` (stereo not drawn) [Example 2, 1-[2-(5-(3-methoxy-4-(2-tetrahydrofuranyl)oxyphenyl)-2,4-pentadienoyl)aminoethyl]-4-diphenylmethoxypiperidine]: the “Inhibition (%) mean ± SE, PCA reaction” value by setting is: (10 mg/kg) 51 ± 18%; (30 mg/kg) 71 ± 6%.
Consider `COc1cc(/C=C/C=C/C(=O)NCCN2CCC(OC(c3ccccc3)c3ccccc3)CC2)ccc1OCc1ccccc1` [Example 1, 1-[2-(5-(3-methoxy-4-benzyloxyphenyl)-2,4-pentadienoyl)aminoethyl]-4-diphenylmethoxypiperidine], for which the “Inhibition (%) mean ± SE, PCA reaction” value runs as follows: (30 mg/kg) 0 ± 20%; (100 mg/kg) 50 ± 14%.
Regarding `CCOCOc1ccc(/C=C/C=C/C(=O)NCCN2CCC(OC(c3ccccc3)c3ccccc3)CC2)cc1OC` [Example 3, 1-[2-(5-(3-methoxy-4-ethoxymethoxyphenyl)-2,4-pentadienoyl)aminoethyl]-4-diphenylmethoxypiperidine], the “Inhibition (%) mean ± SE, PCA reaction” value is recorded as 55 ± 9% (30 mg/kg) and 78 ± 8% (100 mg/kg).
Regarding `COc1ccc(/C=C/C(=O)Nc2ccccc2C(=O)O)cc1OC` [Tranilast, reference compound], the “Inhibition (%) mean ± SE, PCA reaction” value runs as follows: (100 mg/kg) 37 ± 8%; (200 mg/kg) 40 ± 10%; (300 mg/kg) 42 ± 5%.
